From publication PMC7700746 (Bioorganic & medicinal chemistry letters, 2020)

What was measured:
α4β1 integrin = α4β1 integrin (Homo sapiens, UniProt P05556+P13612); conditions: cited from earlier work
α5β1 integrin = α5β1 integrin (Homo sapiens, UniProt P05556+P08648); assay: Cell adhesion assay, SW480 plated on fibronectin; format: cell-based; conditions: for improvement of potency against α5β1 integrin: cell adhesion, versus alkyl-linker compounds
αvβ1 integrin = αvβ1 integrin (UniProt G3HZ55+P06756); assay: Cell adhesion assay, CHOαv adhering to fibronectin; format: cell-based
Chain of αvβ1 integrin (P06756 31-889 limits assumed): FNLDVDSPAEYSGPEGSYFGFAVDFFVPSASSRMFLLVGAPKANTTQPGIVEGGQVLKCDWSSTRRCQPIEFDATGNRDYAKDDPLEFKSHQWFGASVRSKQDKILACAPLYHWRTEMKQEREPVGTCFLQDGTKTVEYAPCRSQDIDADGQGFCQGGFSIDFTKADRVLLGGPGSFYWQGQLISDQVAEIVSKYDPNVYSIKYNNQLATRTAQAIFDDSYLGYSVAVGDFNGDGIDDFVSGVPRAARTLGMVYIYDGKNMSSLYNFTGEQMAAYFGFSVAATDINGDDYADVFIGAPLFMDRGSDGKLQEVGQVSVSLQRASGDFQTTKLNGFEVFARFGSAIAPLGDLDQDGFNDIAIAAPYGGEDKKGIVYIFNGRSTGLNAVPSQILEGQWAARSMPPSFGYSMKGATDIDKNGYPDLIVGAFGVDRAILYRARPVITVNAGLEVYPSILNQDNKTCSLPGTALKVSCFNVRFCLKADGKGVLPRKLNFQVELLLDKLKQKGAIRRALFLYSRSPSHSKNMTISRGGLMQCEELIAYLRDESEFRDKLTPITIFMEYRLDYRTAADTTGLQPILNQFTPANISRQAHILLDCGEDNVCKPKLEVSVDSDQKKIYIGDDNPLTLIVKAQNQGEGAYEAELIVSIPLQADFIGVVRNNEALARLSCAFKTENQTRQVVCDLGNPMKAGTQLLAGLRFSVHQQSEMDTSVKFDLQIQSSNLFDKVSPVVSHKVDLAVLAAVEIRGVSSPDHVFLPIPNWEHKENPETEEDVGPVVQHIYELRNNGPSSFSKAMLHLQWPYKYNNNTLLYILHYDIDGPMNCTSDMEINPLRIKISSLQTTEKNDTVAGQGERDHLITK
Chain of αvβ1 integrin (P06756 891-1048 limits assumed): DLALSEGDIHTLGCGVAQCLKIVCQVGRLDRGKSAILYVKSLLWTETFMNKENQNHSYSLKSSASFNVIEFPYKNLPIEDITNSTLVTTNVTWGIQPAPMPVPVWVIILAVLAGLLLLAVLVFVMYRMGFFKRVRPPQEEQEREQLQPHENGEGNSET
Chain of αvβ1 integrin (G3HZ55 21-798): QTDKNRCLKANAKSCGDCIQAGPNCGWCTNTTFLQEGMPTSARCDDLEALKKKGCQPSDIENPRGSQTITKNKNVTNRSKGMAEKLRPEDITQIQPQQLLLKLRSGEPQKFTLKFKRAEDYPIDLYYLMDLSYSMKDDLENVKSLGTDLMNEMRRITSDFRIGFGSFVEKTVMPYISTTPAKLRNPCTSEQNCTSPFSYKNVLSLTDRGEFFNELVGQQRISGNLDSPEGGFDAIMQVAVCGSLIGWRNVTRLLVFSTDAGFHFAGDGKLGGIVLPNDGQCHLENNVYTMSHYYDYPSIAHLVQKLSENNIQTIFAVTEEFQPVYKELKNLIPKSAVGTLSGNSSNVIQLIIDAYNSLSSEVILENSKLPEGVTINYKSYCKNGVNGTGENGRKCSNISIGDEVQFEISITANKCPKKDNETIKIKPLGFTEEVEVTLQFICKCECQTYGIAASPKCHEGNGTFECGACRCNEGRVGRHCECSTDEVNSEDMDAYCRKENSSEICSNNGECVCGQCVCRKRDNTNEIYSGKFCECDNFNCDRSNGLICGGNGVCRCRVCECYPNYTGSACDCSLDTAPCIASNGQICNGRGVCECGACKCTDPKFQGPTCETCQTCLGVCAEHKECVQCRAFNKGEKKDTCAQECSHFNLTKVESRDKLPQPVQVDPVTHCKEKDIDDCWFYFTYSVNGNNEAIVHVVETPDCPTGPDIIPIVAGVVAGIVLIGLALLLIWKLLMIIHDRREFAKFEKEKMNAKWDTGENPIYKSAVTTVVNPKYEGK

αvβ3 integrin = αvβ3 integrin (Homo sapiens, UniProt P05106+P06756); assay: Cell adhesion assay, SW480 transfected with human β3 adhering to fibrinogen; format: cell-based
Chain of αvβ3 integrin (P06756 31-889 limits assumed): as the sequence (P06756 31-889 limits assumed) above
Chain of αvβ3 integrin (P06756 891-1048 partner limits assumed): as the sequence (P06756 891-1048 limits assumed) above
Chain of αvβ3 integrin (P05106 27-788): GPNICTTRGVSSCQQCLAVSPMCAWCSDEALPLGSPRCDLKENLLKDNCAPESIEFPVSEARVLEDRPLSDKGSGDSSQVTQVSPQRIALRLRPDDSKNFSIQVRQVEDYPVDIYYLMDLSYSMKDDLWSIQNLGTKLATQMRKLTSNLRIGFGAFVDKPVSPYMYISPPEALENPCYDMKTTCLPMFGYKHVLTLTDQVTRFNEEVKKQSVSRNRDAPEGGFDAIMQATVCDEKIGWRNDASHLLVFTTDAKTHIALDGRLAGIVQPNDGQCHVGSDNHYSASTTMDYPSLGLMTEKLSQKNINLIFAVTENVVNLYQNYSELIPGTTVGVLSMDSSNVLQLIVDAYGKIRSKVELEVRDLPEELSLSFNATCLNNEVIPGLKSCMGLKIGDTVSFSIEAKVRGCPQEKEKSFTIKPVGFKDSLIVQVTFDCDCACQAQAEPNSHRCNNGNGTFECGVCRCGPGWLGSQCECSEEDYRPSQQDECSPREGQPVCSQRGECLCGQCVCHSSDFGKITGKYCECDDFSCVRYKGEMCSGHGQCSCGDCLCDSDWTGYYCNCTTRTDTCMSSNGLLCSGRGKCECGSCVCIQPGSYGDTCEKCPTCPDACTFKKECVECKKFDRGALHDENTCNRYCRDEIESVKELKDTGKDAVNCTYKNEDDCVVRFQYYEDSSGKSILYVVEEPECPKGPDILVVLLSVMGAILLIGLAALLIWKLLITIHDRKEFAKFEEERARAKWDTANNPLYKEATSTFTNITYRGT

Caco-2 cell = Caco-2 cell permeability assay; format: in vitro ADME
Solubility = format: physicochemical

Chain of α5β1 integrin (P08648 42-894 limits assumed): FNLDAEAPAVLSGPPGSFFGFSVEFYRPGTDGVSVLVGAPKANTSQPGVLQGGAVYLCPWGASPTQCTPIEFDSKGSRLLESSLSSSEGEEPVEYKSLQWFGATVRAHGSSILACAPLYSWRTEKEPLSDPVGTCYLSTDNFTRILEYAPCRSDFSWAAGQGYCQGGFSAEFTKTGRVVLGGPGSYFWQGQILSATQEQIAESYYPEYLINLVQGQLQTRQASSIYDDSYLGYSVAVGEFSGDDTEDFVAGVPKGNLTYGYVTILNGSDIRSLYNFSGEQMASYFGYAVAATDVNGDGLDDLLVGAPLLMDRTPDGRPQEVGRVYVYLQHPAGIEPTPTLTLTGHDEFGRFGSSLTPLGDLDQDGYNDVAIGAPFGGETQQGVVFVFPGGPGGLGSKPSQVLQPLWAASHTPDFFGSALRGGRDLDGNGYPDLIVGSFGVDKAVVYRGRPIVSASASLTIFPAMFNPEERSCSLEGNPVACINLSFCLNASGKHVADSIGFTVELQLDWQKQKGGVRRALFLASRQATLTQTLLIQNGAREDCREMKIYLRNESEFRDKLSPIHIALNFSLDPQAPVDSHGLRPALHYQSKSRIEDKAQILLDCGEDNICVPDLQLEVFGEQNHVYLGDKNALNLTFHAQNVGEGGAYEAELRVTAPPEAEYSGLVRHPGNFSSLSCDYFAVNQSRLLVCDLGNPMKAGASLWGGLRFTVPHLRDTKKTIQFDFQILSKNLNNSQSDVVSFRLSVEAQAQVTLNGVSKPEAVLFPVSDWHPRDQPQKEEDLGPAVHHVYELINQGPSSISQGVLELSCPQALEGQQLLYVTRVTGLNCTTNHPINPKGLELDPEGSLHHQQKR
Chain of α5β1 integrin (P08648 895-1049 partner limits assumed): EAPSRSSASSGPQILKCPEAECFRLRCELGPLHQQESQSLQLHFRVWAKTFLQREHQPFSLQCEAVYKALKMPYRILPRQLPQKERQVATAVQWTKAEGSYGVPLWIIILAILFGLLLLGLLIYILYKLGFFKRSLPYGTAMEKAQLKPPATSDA
Chain of α5β1 integrin (P05556 21-798): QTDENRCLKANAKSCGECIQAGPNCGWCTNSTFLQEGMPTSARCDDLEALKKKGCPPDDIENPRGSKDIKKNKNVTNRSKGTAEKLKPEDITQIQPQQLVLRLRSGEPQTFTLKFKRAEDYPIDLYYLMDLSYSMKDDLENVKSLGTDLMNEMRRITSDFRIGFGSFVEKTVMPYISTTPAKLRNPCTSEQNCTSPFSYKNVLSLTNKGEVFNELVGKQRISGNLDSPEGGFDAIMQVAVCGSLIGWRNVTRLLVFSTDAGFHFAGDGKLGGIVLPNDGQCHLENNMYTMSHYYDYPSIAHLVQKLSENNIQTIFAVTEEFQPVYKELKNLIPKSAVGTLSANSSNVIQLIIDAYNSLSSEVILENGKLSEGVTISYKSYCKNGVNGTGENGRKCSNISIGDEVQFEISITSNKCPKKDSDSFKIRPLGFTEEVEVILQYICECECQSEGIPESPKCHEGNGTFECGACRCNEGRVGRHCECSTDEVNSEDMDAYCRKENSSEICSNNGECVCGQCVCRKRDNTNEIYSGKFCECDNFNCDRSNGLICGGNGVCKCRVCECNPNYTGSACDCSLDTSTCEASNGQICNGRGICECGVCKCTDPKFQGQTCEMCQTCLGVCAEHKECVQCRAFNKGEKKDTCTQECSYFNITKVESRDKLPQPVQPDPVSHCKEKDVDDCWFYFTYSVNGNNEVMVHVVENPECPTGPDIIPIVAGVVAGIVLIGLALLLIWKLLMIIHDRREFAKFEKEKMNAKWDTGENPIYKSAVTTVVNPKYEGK

potency against α5β1 integrin in cell adhesion assay (in words) (α5β1 integrin)	potency against αvβ1 integrin in cell adhesion assay (in words) (αvβ1 integrin)	selectivity against αvβ3 integrin in cell adhesion assay (in words) (αvβ3 integrin)	improvement of potency against α5β1 integrin (α5β1 integrin)	permeability in Caco-2 cell assay (in words) (Caco-2 cell)	solubility (in words) (Solubility)	SMILES	selectivity against α4β1 integrin (in words) (α4β1 integrin)
		not still satisfactory	more than 10 fold			N=C(N)Nc1cccc(C(=O)NCC(=O)NC[C@H](NC(=O)[C@@H]2CCCN2S(=O)(=O)c2ccccc2)C(=O)O)c1 [Compound 11]	
		not still satisfactory	more than 10 fold			N=C(N)Nc1cccc(C(=O)NNC(=O)NC[C@H](NC(=O)[C@@H]2CCCN2S(=O)(=O)c2ccccc2)C(=O)O)c1 [Compound 12]	

The remaining lines, values behind:

SMILES	potency against α5β1 integrin in cell adhesion assay (in words) (α5β1 integrin)	potency against αvβ1 integrin in cell adhesion assay (in words) (αvβ1 integrin)	selectivity against αvβ3 integrin in cell adhesion assay (in words) (αvβ3 integrin)	improvement of potency against α5β1 integrin (α5β1 integrin)	permeability in Caco-2 cell assay (in words) (Caco-2 cell)	solubility (in words) (Solubility)	selectivity against α4β1 integrin (in words) (α4β1 integrin)
N=C(N)NCCCCC(=O)Nc1ccc(C[C@H](NC(=O)[C@@H]2CCCN2S(=O)(=O)c2ccccc2)C(=O)O)cc1 [Compound 4]							marginal selectivity
N=C(N)NCCCCCNC(=O)NC[C@H](NC(=O)[C@@H]1CCCN1S(=O)(=O)c1ccccc1)C(=O)O [Compound 5]	sub-micromolar IC50	sub-nanomolar potency	excellent selectivity				
N=C(N)Nc1cc(NC(=O)CCCNC(=O)C23CC4CC(CC(C4)C2)C3)cc(C(=O)NCC(=O)NC[C@H](NC(=O)[C@@H]2CCCN2S(=O)(=O)c2ccccc2)C(=O)O)c1 [Compound 15]	excellent nanomolar potency	sub-nanomolar potency	great selectivity		poor permeability	limited solubility	
